Source: PMC2787016 (PLoS Pathogens, 2009)
Where a SMILES comes first, the peptide text is derived from it. Where no end group is shown, it is not given here.

Columns and labels:
HLA-A*0201 = HLA-A*0201 (Homo sapiens, UniProt P04439, D140Y/D185E/D98H/E176V/E277Q/G131W/G231S/I119V/I121R/I166T/I218V/L300P/L318F/N151K/N90K/P208A/P217A/Q86G/Q94H/R138H/R169H/T345S); assay: biochemical; format: binding
HLA-A*1101 = HLA-A*1101 (Homo sapiens, UniProt P04439, A114D/D185E/E176A/F33Y/L180Q/S129P/T187R); assay: biochemical; format: binding
[1] = tested on: peptide-pulsed JA2.1 cells; format: cell-based, HLA-A*0201 transgenic mice
[2] = tested on: human JA2.1 cells infected with the appropriate rVACV; format: cell-based, HLA-A*0201 transgenic mice; design: key to Natural processing in human APCs: +, Processed; +/−, weakly processed; −, not processed
[3] = tested on: HLA-restricted target cells pulsed with peptide; format: cell-based, HLA-A*1101 transgenic mice

Molecule | IC50 (HLA-A*0201) [nM] | IC50 (HLA-A*1101) [nM] | further results
GLLEWIFRA [SABV GPC142–150] | 1.2 | – | –
KCLNIMLGK [SABV Z64–72] | – | 678 | –
GLSQFTQTV [JUNV NP19–27] | 30 | – | –
RTAPPSLYGR [MACV Z27–36] | – | 8.9 | –
ALNIALVAV [JUNV GPC18–26] | 79 | – | –
AMPGVLSYV [MACV NP432–440] | 8.4 | – | –
GLLQFIVFL [WWAV GPC42–50] | < 0.05 | – | Identified as CD8+ T cell epitope after rVACV infection [1]: identified; Natural processing in human APCs [2]: +; Recognition of rVACV-infected human target cells by peptide-primed CD8+ T cells [2]: robust
STYYVHENK [SABV GPC90–98] | – | 6 | –
SIINHKFCNL [LASV GPC111–120] | 2120 | – | –
ALNIALIAV [WWAV GPC18–26] | 27 | – | –
FTNDSIISH [LCMV GPC112–120] | – | 38 | –
TVIKTLLEV [WWAV NP274–282] | 276 | – | –
AINIALIAV [SABV GPC18–26] | 834 | – | –
AVYNFATCGI [LCMV GPC34–43] | 137 | – | –
SIQKNTIFK [MACV NP82–90] | – | 5.5 | –
TTYLGPLSCK [LCMV Z24–33] | – | 2.8 | –
SSIIRSLPK [WWAV NP439–447] | – | 2.5 | –
LVSFLLLAGR [LCMV GPC46–55] | – | 70 | –
ATVKNVVLR [GTOV L1977–1985] | – | 54 | –
GLSQFTHTV [MACV NP19–27] | 18 | – | –
LLPDALLFTL [SABV NP547–556] | 77 | – | –
LVTFLLLCGR [LASV GPC46–55] | – | > 5000 | % of Epitope response [3]: 147%
SSQRDTILK [SABV NP82–90] | – | 9.3 | –
CC(C)C[C@H](NC(=O)[C@H](CC(C)C)NC(=O)[C@H](CC(N)=O)NC(=O)[C@H](CC(C)C)NC(=O)[C@H](CS)NC(=O)[C@H](Cc1c[nH]cn1)NC(=O)[C@H](CCCNC(=N)N)NC(=O)[C@H](CS)NC(=O)[C@H](CC(C)C)NC(=O)[C@@H](N)Cc1ccc(O)cc1)C(=O)O [LCMV Z49–58] (H-YLCRHCLNLL-OH) | 3.9 | – | –
